“Also recorded” adds a separate entry of the source. Like-named read-outs stand apart in the source and are kept apart here.
Assays:
protein kinase C [1] = details: read-out: KI, binding affinity to protein kinase C; cited from earlier work
[2] = tested on: polymodal nociceptor neurons; details: for RTX-like effects: in vivo
polymodal nociceptors [3] = assay type: in vivo, Sprague-Dawley rats; details: for Neurogenic inflammation, Evan's blue: 30 min; for Evan's blue extravasation / less potent than RTX for induction of Evan's blue extravasation: rat, in vivo
polymodal nociceptors [4] = tested on: polymodal nociceptors; design: species or system Sprague-Dawley rats; details: rat, in vivo
polymodal nociceptors [5] = assay: animal or person; assay type: in vivo, Sprague-Dawley rats
polymodal nociceptors [6] = assay: animal or person; assay type: in vivo, Sprague-Dawley rats; remark: listed apart in the source
protein kinase C [7] = assay type: binding; details: for Ki: read-out: KI, binding affinity to protein kinase C
mouse ear = details: in vivo; cited from earlier work
[8] = mouse, in vivo; cited from earlier work
[9] = rat, in vivo; cited from earlier work
[10] = tested on: polymodal nociceptor neurons; details: in vivo; cited from earlier work
polymodal nociceptors [11] = tested on: polymodal nociceptors; design: species or system Sprague-Dawley rats; details: rat, in vivo; remark: listed apart in the source
polymodal nociceptors [12] = details: rat, in vivo; cited from earlier work
[13] = design: species or system rats; details: rat, in vivo
[14] = Rattus norvegicus, sc, 6 hr, read-out: Systemic desensitization against neurogenic inflammation, inhibition
[15] = Rattus norvegicus, sc, 6 h, read-out: Systemic desensitization against neurogenic pain, inhibition

SMILES | RTX-like effects [2] | Neurogenic inflammation, Evan's blue (polymodal nociceptors [3]) | Evan's blue extravasation (polymodal nociceptors [3]) | RPP (Relative Pain-Producing Potency) (polymodal nociceptors [4]) | inhibition at 0.3 mg/kg (polymodal nociceptors [5]; [14]) [%] | inhibition at 0.3 mg/kg (polymodal nociceptors [6]; [15]) [%] | Relative Affinity (protein kinase C [7]) | reduction of protein kinase C binding affinity by the 20-homovanillate ester (protein kinase C [7]) [fold] | Ki (protein kinase C [7]) [nM] | activity in eye-wiping assay / pain induction (polymodal nociceptors [4]) | further results
C=C(C)[C@@]12O[C@@]3(c4ccccc4)O[C@@H]1[C@@H]1[C@@H]4O[C@]4(CO)[C@@H](O)[C@]4(O)C(=O)C(C)=C[C@H]4[C@@]1(O3)[C@H](C)[C@H]2OC(=O)/C=C/C=C/c1ccccc1 [Mez, Mezerein] | inactive | 0 | slight extravasation | 0.1 | 0 |  |  |  |  |  | Ki (protein kinase C [1]): 0.58 ± 0.06 nM
C=C(C)[C@@]12O[C@@]3(c4ccccc4)O[C@@H]1[C@@H]1[C@@H]4O[C@]4(COC(=O)Cc4ccc(O)c(OC)c4)[C@@H](O)[C@]4(O)C(=O)C(C)=C[C@H]4[C@@]1(O3)[C@H](C)[C@H]2OC(=O)/C=C/C=C/c1ccccc1 [Mez-HV, Mezerein 20-homovanillate] | inactive | 0 | No extravasation | 0.1 | 0 | 0 | 690 | 690 | 400 ± 110 | very weak pungency; also recorded: very weak activity | desensitization to chemically-induced pain and to neurogenic inflammation (polymodal nociceptors [6]; rat, in vivo): No activity; also recorded: inactive; less potent than RTX for induction of Evan's blue extravasation (polymodal nociceptors [3]): at least 30 fold; potency in eye-wiping assay, less potent than RTX and dPP-HV (polymodal nociceptors [4]): approximately 4 orders of magnitude
C=C(C)[C@]12C[C@@H](C)[C@@]34O[C@](Cc5ccccc5)(O[C@@H]1[C@@H]3C=C(CO)C[C@]1(O)C(=O)C(C)=C[C@@H]41)O2 [ROA, Resiniferonol 9,13,14Orthophenylacetate] | totally inactive | 0 |  | 1 | 0 | 0 |  |  | 36 ± 9 |  | less active than dPP or mezerein in competing for phorbol ester binding sites on protein kinase C (protein kinase C [7]): 100 fold; potency in ear reddening assay, less than dPP (mouse ear): 25 fold; potency in ear reddening assay, less than mezerein (mouse ear): 33 fold; less potent than RTX for RTX-characteristic biological responses (polymodal nociceptors [4]): at least 1000 fold
C=C(C)[C@]12C[C@@H](C)[C@@]34O[C@](Cc5ccccc5)(O[C@@H]1[C@@H]3C=C(COC(=O)Cc1ccc(O)c(OC)c1)C[C@]1(O)C(=O)C(C)=C[C@@H]41)O2 [RTX, Resiniferatoxin] |  | 91.6 ± 3.6 |  | 1000 | 100 |  | 11 | 11 | 404 ± 63 | comparable activity | inhibition at 0.01 mg/kg (polymodal nociceptors [6]; [15]): 100%; body temperature in mice [8]: dramatic fall in body temperature; more potent than phorbol 12-myristate 13-acetate in mouse ear erythema assay (mouse ear): 1000 fold; dose producing a substantial drop in body temperature [9]: 10^-7 g/kg; more potent compared to capsaicin [10]: 3-4 orders of magnitude; Local desensitization against neurogenic pain, inhibition (polymodal nociceptors [11]): 43%; dose giving a detectable Evan's blue extravasation response (polymodal nociceptors [12]): 3×10^-6 g/paw; delay of eye-wiping movements after instillation (polymodal nociceptors [4]): 5 to 10 s
COc1cc(CNC(=O)CCCC/C=C/C(C)C)ccc1O [capsaicin] |  |  |  |  |  |  |  |  |  |  | body temperature in mice [8]: dramatic fall in body temperature
CC1=C[C@H]2[C@@]3(O)[C@H](C)C[C@]4(OC(=O)Cc5ccccc5)[C@H]([C@@H]3C=C(CO)C[C@]2(O)C1=O)C4(C)C [dPP, 12-deoxyphorbol 13-phenylacetate] | inactive | 0 | slight extravasation | 1 | 0 |  |  |  | 0.64 ± 0.01 |  | 
COc1cc(CC(=O)OCC2=C[C@H]3[C@@H]4C(C)(C)[C@]4(OC(=O)Cc4ccccc4)C[C@@H](C)[C@]3(O)[C@@H]3C=C(C)C(=O)[C@@]3(O)C2)ccc1O [dPP-HV, 20-Homovanillic-12-deoxyphorbol 13-phenylacetate] | more active than capsaicin and less active than RTX | 0 | No extravasation | 1000 | 26 | 19 | 130 | 130 | 82 ± 13 | comparable to RTX; also recorded: comparable activity | desensitization to chemically-induced pain and to neurogenic inflammation (polymodal nociceptors [6]; rat, in vivo): able to desensitize; relative potency for systemic desensitization to chemically induced pain, less than RTX (polymodal nociceptors [6]; rat, in vivo): approximately 3000 fold; induction of hypothermia [13]: totally inactive; less potent than RTX for induction of hypothermia [13]: at least 4 orders of magnitude; less potent than RTX in the other RTX responses / in vivo assays [2]: 2-4 orders of magnitude; Local desensitization against neurogenic pain, inhibition (polymodal nociceptors [11]): 78%; potency relative to RTX for desensitization of pain upon local administration (polymodal nociceptors [11]): ≤ 10 fold; less potent than RTX for induction of Evan's blue extravasation (polymodal nociceptors [3]): at least 30 fold; delay of eye-wiping movements after instillation (polymodal nociceptors [4]): 20 to 30 s; inhibition at 1 mg/kg (polymodal nociceptors [5]; [14]): 62%; relative potency for inhibiting xylene-induced Evan's blue extravasation, less than RTX (polymodal nociceptors [5]; rat, in vivo): 300 fold
